In data set [1] the test system is nontransformed FDC-P1 cells. The data set is described as follows: Cell cycle distribution of nontransformed FDC-P1 cells. Format: cell-based, murine. The note with it: for Cell cycle distribution (% > GO /G1): 24 hours, untreated control 62. As for the experimental part:
Table 3 tabulates the effect of P-OH on cell cycle distribution of nontransformed and p210 transformed FDC-P1 cells.
^1 Cells were plated at 2.5 × 10^5 per ml in duplicate well
of a 24well plate in the presence of 10% WEHI3-conditioned media as a
source of IL3 and with the indicated concentration of P--OH. After 24
hours, the cells were fixed in ethanol, permeabilized and stained with
propidium iodide, then analyzed for DNA content by flow cytometry.
^2 FDCP1 = nontransformed cells, Fp210.1 = 210transformed FDCP1 cells

Data set [2] has as its system NIH3T3 cells. The data set is described as follows: Inhibition of NIH3T3 cell growth. Type of data set: cell-based, mouse. As to conditions: FIG. 3. As for the experimental part: (§1) NIH3T3 (mouse embryo) cells were obtained from the American Type Culture Collection and were grown in Dulbecco's modified Eagle's medium supplemented with 10% calf serum. M600B immortalized human mammary epithelial cells (Stampfer, M. R., 1985, J. Tissue Culture Methods 9: 107-115) were obtained from Dr. Martha Stampfer and were grown in supplemented HCDB 170 medium (Hammond, et al. (1984) Proc. Natl. Acad. Sci U.S.A. 81: 5435-5439), as described previously (Stampfer, et al. (1985) Proc. Natl. Acad. Sci U.S.A. 82: 2394-2398; Eldridge, et al. (1989) Cancer Res. 49: 4326-4331).
(§2) All cells were maintained in 100-mm dishes at 37° C. in a humidified 5% CO2 atmosphere. Viable cells were distinguished from nonviable cells by counting azure II/methylene blue-stained colonies 10 days after the cells were plated at a density of 100 cells per dish. Trypan blue exclusion was measured by incubating cells for 1 minute with one drop of trypan blue per 10 ml of cells. Viable (colorless) and nonviable (blue) cells were then counted on a hemocytometer.
(§3) Additionally, growth of HT29 (human colon adenocarcinoma) cells was inhibited by 80% by 1 mM perillyl alcohol.

For data set [3], the system named is M600B cells. Description: Inhibition of M600B cell growth. As to conditions: FIG. 4. Format: cell-based, human. How it is done:
as §1, §2, §3

The nature of data set [4]: Toxicity of dietary perillyl alcohol in rats. Format: in vivo, Wistar-Furth female rats. As for the experimental part: We used Wistar-Furth female rats for in vivo studies. Wistar-Furth female rats were obtained from Harlan Sprague-Dawley, Inc., (Madison, Wis.). All rats, arriving at 43-48 days of age, were housed at four rats per cage in wire-bottom metal cages and all were maintained with a light/dark cycle of 12 hours. Rates were provided Teklad Lab blox chow and acidified water ad libitum.
In the pair-feeding study, a group of 70 mammals was treated with DMBA. Beginning four weeks post-carcinogen administration, mammals were weighed and palpated weekly. Upon palpation of the first mammary tumor(s) (diameter≥3 mm), mammals were randomly assigned to control or 2.5% (w/w) perillyl alcohol diet and pair-fed.
Perillyl alcohol (>96% pure by GC analysis, Aldrich, Milwaukee, Wis.) and Teklad 4% mouse/rat diet meal were thoroughly mixed and stored at -20° C. Fresh diets were make every 7-10 days. All mammals were provided fresh diet daily to minimize evaporation of the monoterpenes. For pair-feeding, the quantity of diet consumed by the monoterpene-fed mammals was measured every 24 hours and the assigned partner was pair-fed accordingly.

Data set [5] deals with human cancer cell lines. The data set is described as follows: Growth of human cancer cell lines (NCI Developmental Therapeutics Program). Format: cell-based. How it is done:
Various concentrations of perillyl alcohol inhibited the growth of a number of human cancer cell lines. FIG. 5A-G is a set of diagrams showing the effects of perillyl alcohol on different cancer cell lines. These experiments were conducted by the National Cancer Institute Developmental Therapeutics Program.

Data set [6] concerns p210-transformed FDC-P1 cells. Description: Proliferation of p210 bcr/abl-transformed FDC-P1 myeloid cells. Type of data set: cell-based, murine. How it is done: (The p210 bcr/abl oncogene is carried on a helper-free retrovirus referred to as "p210.") FDC-P1 myeloid cells are an immature cell line from myeloid lineage derived from mouse bone marrow (Dexter, TM, J. Exp. Med. 152: 1036-1047, 1980).

The test system of data set [7] is DMBA-induced rat mammary carcinomas. The data set is described as follows: Pair-feeding study: regression and inhibition of DMBA-induced mammary carcinomas in rats. Format: in vivo, Wistar-Furth female rats. How it is done:
We used Wistar-Furth female rats for in vivo studies. Wistar-Furth female rats were obtained from Harlan Sprague-Dawley, Inc., (Madison, Wis.). […] Rates were provided Teklad Lab blox chow and acidified water ad libitum.
The DMBA was dissolved in a stock solution of 20 mg DMBA/ml sesame oil, heated and allowed to cool to room temperature before administration. DMBA (Eastman Kodak, Rochester, N.Y.) was given as a single gastric intubation of 50 mg DMBA/kg rat body weight.
In the pair-feeding study, a group of 70 mammals was treated with DMBA. Beginning four weeks post-carcinogen administration, mammals were weighed and palpated weekly.
Fresh diets were make every 7-10 days. All mammals were provided fresh diet daily to minimize evaporation of the monoterpenes.
In a pair-feeding study, all palpable mammary tumors were classified as either "primary" tumors (i.e., the first tumor(s) palpated with a minimum diameter of 3 mm) or "secondary" tumors (i.e. a palpable tumor arising after initial diet assignment). […] All carcinogen-exposed mammals not bearing a first palpable tumor by week 15 post-carcinogen were removed from the experiment. Complete regression of a tumor was defined as non-palpability for a minimum of three consecutive weeks. All mammals in the pair-feeding study were followed for a minimum of 10 weeks post-diet assignment for tumor growth or regression at primary tumor sites and all other mammary glands. The rats were necropsied if moribund. Complete necropsies were performed on all rats at the termination of the study.

Entries after “also recorded” stand apart in the source; their conditions may differ.

This note sets out measurements from patent US5587402A, “Regression of mammalian leukemia cell tumors” (priority 1995, dated 1996).

In the case of `C=C(C)[C@@H]1CC=C(CO)CC1` [perillyl alcohol], the “Cell cycle distribution (% > GO /G1)” value amounted to 57% in data set [1] (100 μM P--OH) and 49% in data set [1] (500 μM P--OH). In data set [1] (up to 500 μM), the “changes in the cell cycle distribution” value is recorded as “only minor changes”. Moreover, the results for the “inhibition of cell growth” value in data set [2], in data set [3] and in data set [5] (variety of human cancer cell types including leukemia cells (FIG. 5A)) were “significantly inhibited cell growth in a dose-dependent manner”, “significantly inhibited cell growth in a dose-dependent manner” and “inhibition of cell growth”, respectively. In data set [4] (diet, data not shown), the “maximum dose tolerated (diet)” value is reported as 2.5%. Also, in data set [4] (perillyl alcohol-fed versus control, FIG. 8), the body weight entry was “initial weight loss followed by weight gain and a plateau; also recorded: did not achieve weights similar to controls”. The “inhibition of cancer cell growth” value in data set [5] (various concentrations, FIG. 5A-G, all lines) was “inhibited cancer cell growth”. Moreover, the “growth inhibition, transformed versus nontransformed cells” value in data set [6] (100-800 μM, FIG. 9B) was “significantly more inhibitory for the growth of p210-transformed FDC-P1 cells compared to nontransformed FDC-P1 cells”. In addition, the “growth-inhibitory curve with added IL-3” value in data set [6] (IL-3 added) was “significantly shifted upward”. Also, the inhibition – broadly, the share of the control response that was lost under treatment – at 400 µM in data set [6] (Mus musculus, FDC-P1, read-out: inhibition of growth) was over 80%. Also, the “reversion of autonomously growing malignant cells” value in data set [6] (conclusion from in vitro results) is “reverts autonomously growing malignant cells to a factor-dependent, apoptosis-sensitive state”. Moreover, in data set [7] (2.5% perillyl alcohol diet), the “development of secondary tumors” value was “inhibited the development of secondary tumors”. In addition, the “Primary Tumor Regression (tumors regressed / tumors)” value in data set [7] (2.5% perillyl alcohol diet, complete regression, pair-fed control 9/29, listed as POH) is 22/27. For the same compound, the “Primary Tumor Regression (%)” value in data set [7] (2.5% perillyl alcohol diet, complete regression, pair-fed control 31%) amounted to 81%. The “Number of Secondary Tumors/Rat” value in data set [7] (2.5% perillyl alcohol diet, pair-fed control 1.62) came out at 0.04. For the same compound, the “Time to Regress” value in data set [7] (2.5% perillyl alcohol diet, pair-fed control 5.6, listed as POH) is recorded as 3.6 ± 0.3 wks. Also, the “Secondary Tumor Regression (tumors regressed / tumors)” value in data set [7] (2.5% perillyl alcohol diet, pair-fed control 11/42) is 0/1. The “Secondary Tumor Regression (%)” value in data set [7] (2.5% perillyl alcohol diet, pair-fed control 26%) was 0%. The “secondary tumors / mammals” value in data set [7] (2.5% perillyl alcohol diet, pair-fed control 42/26) was 1/26. Also, in data set [7] (2.5% perillyl alcohol versus 10% limonene diet), the “amount of perillyl alcohol needed relative to the amount of limonene” value turned out to be 25%. Besides, the “time for a primary tumor to regress to a non-palpable mass” value in data set [7] (perillyl alcohol-treated group versus pair-fed controls) is “shorter than the time for spontaneous regression in the pair-fed controls”.
